Experiments:
[1] = test system: AMPK; assay: Phosphorylation of AMPK on Thr172 in L6 cells, Western blot; type: cell-based, mouse; settings: 100 μM tetracosanol 90 min, then 10 μM insulin 30 min, FIG. 2
Method: (§1) […] muscle myoblast cells (L6) was a generous gift from Professor Hitoshi Ashida's Lab. (Kobe University, Kobe, Japan). The cells were grown and maintained in α-minimal essential medium (α-MEM, 12000022, GIBCO, CA, USA) containing 10% fetal bovine serum (FBS, GIBCO) and 1% penicillin streptomycin (GIBCO) in a cell culture incubator with 5% CO2 at 37° C. Prior to the following experiments, the cells were seeded and cultured at a density of 8×10^3 cells per well in 96-well plates or 2.5×10^5 cells per well in 6-well plates. After the myoblasts achieved 80% confluence, the cells were incubated for 5 days in the α-MEM supplemented with 2% FBS to induce differentiation to myotubes.
The L6 cells were fully differentiated with α-MEM supplemented with 2% FBS for 5 days to myotubes. […] The levels of the proteins including phospho-AKT (Thr308), AKT, phospho-AMPK (Thr172), and AMPK (Cell Signaling) were detected and evaluated by Western blot with primary antibody.
The cells after treatments were collected and washed twice in cold KRH buffer, and then lysed in ice-cold RIPA buffer incubation at 4° C. for 60 min. After centrifugation at 12,000×g for 30 min at 4° C., the supernatant was kept and quantified by Bradford protein assay (Bio-Rad, Hercules, Calif., USA). […] Acquired data were analyzed and compared the difference among treatments. […]

[2] = test system: AKT; assay: Phosphorylation of AKT on Thr308 in L6 cells, Western blot; type: cell-based, rat; settings: FIG. 1(b)
Method: as §1
The L6 cells were fully differentiated with α-MEM supplemented with 2% FBS for 5 days to myotubes. The cells were washed twice with PBS containing 0.1% BSA and subsequently incubated α-MEM containing 0.25% BSA with or without 100 nM of S961, and then treated with or without 100 μM of Tetracosanol for 90 min. Then, the cells were treated with or without 10 μM of insulin for 30 min. Finally, the cells were collected and washed twice in KRH buffer, then lysed in ice-cold RIPA buffer for 60 min. After centrifugation at 12,000×g for 30 min. at 4° C., the supernatant was kept at −80° C. until use. The levels of the proteins including phospho-AKT (Thr308), AKT, phospho-AMPK (Thr172), and AMPK (Cell Signaling) were detected and evaluated by Western blot with primary antibody.
The cells after treatments were collected and washed twice in cold KRH buffer, and then lysed in ice-cold RIPA buffer incubation at 4° C. for 60 min. After centrifugation at 12,000×g for 30 min at 4° C., the supernatant was kept and quantified by Bradford protein assay (Bio-Rad, Hercules, Calif., USA). The proteins were separated using sodium dodecyl sulfate polyacrylamide gel electrophoresis (SDS-PAGE) and subsequently transferred to PVDF (Perkin Elmer Life Sciences, Boston, Mass., USA) membrane. […] The signals were monitored using Western Lightning™ Plus-ECL (Perkin Elmer Life Sciences) and the PVDF membrane was exposed to Luminescent image analyzer (LAS)-3000 (Fujifilm, Minato, Tokyo, Japan). Acquired data were analyzed and compared the difference among treatments.
The differentiated L6 cells were incubated with 100 μM of tetracosanol (Tet) at 37° C. for 90 min, and then treated 10 μM of insulin (Ins) at 37° C. for 5 or 30 min. The cell lysates were separated by SDS-PAGE and blotted 5 min for phospho-Insr on Tyr1158, 1162, and 1163 (Insr, 100 kDa), and phospho-AKT on Thr308 protein level was measured at 30 min in Western blot analysis.

[3] = biological target: T1, Insr (Rattus norvegicus, UniProt P15127); assay: Phosphorylation of insulin receptors (Tyr1158/Tyr1162/Tyr1163) in L6 cells, Western blot; type: cell-based; settings: FIG. 1(a)
T1 construct: L6 cells were fully differentiated with α-MEM supplemented with 2% FBS for 5 days to myotubes; endogenous in cells; host or cells: L6 myoblasts differentiated to myotubes
Method: as §1
L6 cells were fully differentiated with α-MEM supplemented with 2% FBS for 5 days to myotubes. The cells were washed twice with Phosphate Buffered Saline (PBS) containing 0.1% BSA and subsequently incubated α-MEM containing 0.25% BSA with or without 100 nM of S961, and treated with or without 100 μM of Tetracosanol for 90 min. Then, the cells were treated with or without 10 μM of insulin for 5 min. […] The levels of the proteins including phospho-Insulin receptors (Tyr1158/Tyr1162/Tyr1163) and Insulin receptor (Cell Signaling, Boston, Mass., USA) were detected and evaluated by Western blot with primary antibody.
The cells after treatments were collected and washed twice in cold KRH buffer, and then lysed in ice-cold RIPA buffer incubation at 4° C. for 60 min. After centrifugation at 12,000×g for 30 min at 4° C., the supernatant was kept and quantified by Bradford protein assay (Bio-Rad, Hercules, Calif., USA). […] The signals were monitored using Western Lightning™ Plus-ECL (Perkin Elmer Life Sciences) and the PVDF membrane was exposed to Luminescent image analyzer (LAS)-3000 (Fujifilm, Minato, Tokyo, Japan). Acquired data were analyzed and compared the difference among treatments. […]

T1 sequence (P15127 27-759 limits assumed): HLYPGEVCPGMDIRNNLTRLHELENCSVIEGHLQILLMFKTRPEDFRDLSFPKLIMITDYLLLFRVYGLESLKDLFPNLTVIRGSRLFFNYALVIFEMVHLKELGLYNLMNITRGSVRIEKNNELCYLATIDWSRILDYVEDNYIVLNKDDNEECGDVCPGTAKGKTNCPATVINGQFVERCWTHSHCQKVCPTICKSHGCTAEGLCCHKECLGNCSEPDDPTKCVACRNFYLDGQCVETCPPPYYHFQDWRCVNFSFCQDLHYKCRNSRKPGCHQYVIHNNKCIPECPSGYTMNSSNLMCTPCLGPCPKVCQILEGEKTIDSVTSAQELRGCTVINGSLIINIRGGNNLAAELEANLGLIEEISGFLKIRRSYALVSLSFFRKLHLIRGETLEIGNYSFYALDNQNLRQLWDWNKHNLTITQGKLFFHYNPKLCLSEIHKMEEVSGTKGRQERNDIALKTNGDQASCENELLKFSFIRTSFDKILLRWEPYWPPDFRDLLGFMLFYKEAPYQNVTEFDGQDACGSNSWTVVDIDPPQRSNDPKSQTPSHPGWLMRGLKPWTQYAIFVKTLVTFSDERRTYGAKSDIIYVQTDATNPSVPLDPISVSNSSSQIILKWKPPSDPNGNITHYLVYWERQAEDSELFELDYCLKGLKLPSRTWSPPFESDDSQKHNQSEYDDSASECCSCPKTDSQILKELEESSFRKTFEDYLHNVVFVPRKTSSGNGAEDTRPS
T1 sequence (P15127 764-1383 limits assumed): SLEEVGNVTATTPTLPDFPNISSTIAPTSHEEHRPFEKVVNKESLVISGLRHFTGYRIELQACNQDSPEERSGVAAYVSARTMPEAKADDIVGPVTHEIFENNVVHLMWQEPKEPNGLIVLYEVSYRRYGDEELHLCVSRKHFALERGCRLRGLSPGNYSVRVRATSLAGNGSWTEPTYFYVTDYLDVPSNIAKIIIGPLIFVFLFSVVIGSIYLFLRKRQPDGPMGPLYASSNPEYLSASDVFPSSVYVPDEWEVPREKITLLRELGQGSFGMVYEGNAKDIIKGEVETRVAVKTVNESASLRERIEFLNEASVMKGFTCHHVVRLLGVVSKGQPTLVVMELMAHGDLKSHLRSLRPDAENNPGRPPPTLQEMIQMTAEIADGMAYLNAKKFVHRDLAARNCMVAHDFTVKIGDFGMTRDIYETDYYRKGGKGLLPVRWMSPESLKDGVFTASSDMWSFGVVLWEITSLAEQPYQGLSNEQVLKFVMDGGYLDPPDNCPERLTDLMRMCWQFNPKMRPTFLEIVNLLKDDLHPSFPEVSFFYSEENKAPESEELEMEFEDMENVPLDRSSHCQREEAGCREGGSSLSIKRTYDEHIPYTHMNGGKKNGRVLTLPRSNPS

CCCCCCCCCCCCCCCCCCCCCCCCO [tetracosanol]
insulin-independent GLUT4 translocation response (phospho-AMPK on Thr172) [1]: no insulin-independent GLUT4 translocation response
phospho-AKT on Thr 308 ([2]; 100 μM tetracosanol (Tet) alone, 90 min): did not
phospho-AKT on Thr 308 ([2]; insulin plus both S961 and tetracosanol (Ins+S961+Tet)): induced the phospho-AKT on Thr 308
phospho-AKT on Thr 308 ([2]; insulin plus tetracosanol (Ins+Tet): 100 μM tetracosanol 90 min, then 10 μM insulin 30 min): induced the phospho-AKT on Thr 308
phosphorylation of phospho-Insr on Tyr1158, 1162, and 1163 ([3]; insulin plus tetracosanol (Ins+Tet): 100 μM tetracosanol 90 min, then 10 μM insulin 5 min): tended to be enhanced
phosphorylation of phospho-Insr on Tyr1158, 1162, and 1163 ([3]; insulin with S961 plus tetracosanol (Ins+S961+Tet): 100 nM S961, 100 μM tetracosanol, 10 μM insulin): tended to be enhanced

Reference: patent publication US9226950B2, “Method and composition for treating diabetes mellitus” (National Dong Hwa University, priority 2013, dated 2016)
